Data taken from PubChem BioAssay AID651581 (Sanford-Burnham Center for Chemical Genomics, 2012).
Calls of active or inactive are those of the source. The rule behind the calls is not given here.

Key:
[1] = target: Endothelial PAS domain-containing protein 1 (Homo sapiens) (UniProt Q99814); assay: HIF-2a and HIF-1a reporter inhibition panel, dose response, selectivity assay for HIF-2a inhibitor project, cell-based, luminescence (AID 651581)
[2] = target: Hypoxia-inducible factor 1-alpha (Homo sapiens) (UniProt Q16665); assay: as above; conditions: HIF-1a
Sequence of Hypoxia-inducible factor 1-alpha (Homo sapiens) (Q16665 whole entry, looked up): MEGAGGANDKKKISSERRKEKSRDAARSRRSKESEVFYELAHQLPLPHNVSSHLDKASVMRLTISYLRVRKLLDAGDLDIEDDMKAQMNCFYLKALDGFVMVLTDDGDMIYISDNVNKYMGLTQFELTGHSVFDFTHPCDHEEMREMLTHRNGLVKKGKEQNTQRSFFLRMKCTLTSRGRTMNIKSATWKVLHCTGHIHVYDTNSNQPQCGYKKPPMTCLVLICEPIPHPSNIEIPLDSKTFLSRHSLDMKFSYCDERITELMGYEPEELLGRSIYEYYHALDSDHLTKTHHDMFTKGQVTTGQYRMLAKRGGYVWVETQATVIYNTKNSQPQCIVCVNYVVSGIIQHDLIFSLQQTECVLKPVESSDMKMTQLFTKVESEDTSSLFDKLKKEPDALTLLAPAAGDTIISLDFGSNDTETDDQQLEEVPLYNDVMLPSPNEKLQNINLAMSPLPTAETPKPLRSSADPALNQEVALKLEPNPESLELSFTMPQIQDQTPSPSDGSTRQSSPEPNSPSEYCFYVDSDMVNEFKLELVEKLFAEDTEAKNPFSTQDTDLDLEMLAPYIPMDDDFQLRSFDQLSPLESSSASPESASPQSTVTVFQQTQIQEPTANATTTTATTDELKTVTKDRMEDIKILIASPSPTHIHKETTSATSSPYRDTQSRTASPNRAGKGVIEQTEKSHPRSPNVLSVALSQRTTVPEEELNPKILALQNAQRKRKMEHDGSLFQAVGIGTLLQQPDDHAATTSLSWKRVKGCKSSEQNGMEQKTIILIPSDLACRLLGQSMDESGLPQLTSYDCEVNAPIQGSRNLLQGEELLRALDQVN

| Structure (SMILES) | IC50 ([1]; HIF-2a PANC, mean of runs) | IC50 ([1]; HIF-2a PANC, run 1) [µM] | IC50 ([1]; HIF-2a PANC, run 2) [µM] | IC50 ([1]; HIF-2a, mean of runs) | IC50 ([1]; HIF-2a, run 1) [µM] | IC50 ([1]; HIF-2a, run 2) [µM] | IC50 ([2]; run 1) [µM] | IC50 ([2]; run 2) [µM] | IC50 ([2]; mean of runs) |
| --- | --- | --- | --- | --- | --- | --- | --- | --- | --- |
| COC(=O)c1cccc(-c2noc(-c3ccccc3F)n2)c1 | 9.77 µM | 9.59 | 9.94 | < 10 µM | < 10 | < 10 | > 99 | > 99 | – |
| Cc1csc(NC(=O)CCc2c(C)nc3cc(-c4ccc(Cl)cc4)nn3c2C)n1 | – | < 0.19 | 0.308 | – | < 1 | 0.344 | 0.486 | < 10 | – |
| Cc1ccc(-n2nc3ccc(N)cc3n2)c(C)c1 | inactive | 1.69 | 3.51 | 0.452 µM | 0.456 | 0.448 | > 99 | > 99 | – |
| CCOC(=O)c1ccc(Oc2nc(NC(C)(C)C)nc(N(C)C)n2)cc1 | inactive | 20.7 | 51.9 | inactive | 8.84 | 11.9 | 21.8 | 31.4 | inactive |
| O=C(O)c1cccc(-c2nnn(Cc3ccccc3Cl)n2)c1 | > 99 µM (inactive) | > 99 | > 99 | < 30 µM (inactive) | < 30 | < 30 | > 99 | > 99 | – |
| Cc1nc2cc(-c3ccccc3)nn2c(C)c1CCC(=O)NC(C)c1ccc2c(c1)OCCO2 (centres undefined) | 2.4 µM | 2.9 | 1.91 | 3.26 µM | 3.59 | 2.92 | 3.84 | 44.7 | 24.3 µM |
| CCN(CC)S(=O)(=O)c1ccc(NC(=O)c2cccnc2Cl)c(NC(=O)c2cccnc2Cl)c1 | 9.99 µM | 12.9 | 7.07 | 10 µM | 9.42 | 10.6 | 8.13 | 16.9 | inactive |
| O=C(c1ccccc1)N1CCSc2sccc2C1=O | 18.9 µM | 28 | 9.87 | 6.78 µM | 6.98 | 6.58 | 57.6 | 55.1 | 56.4 µM |
| O=Cc1cn(Cc2cccc([N+](=O)[O-])c2)c2ccccc12 | > 99 µM (inactive) | > 99 | > 99 | 0.978 µM | 0.982 | 0.975 | > 99 | > 99 | – |
| CS(=O)(=O)c1ccc(-c2cn3cc(C(=O)O)ccc3n2)cc1 | – | 86.7 | > 99 | inactive | 28.8 | 47.2 | > 99 | > 99 | > 99 µM (inactive) |
| Cn1ncc2c(O/N=C(\N)c3ccc(C(C)(C)C)cc3)ncnc21 | – | < 30 | 45.6 | 4.17 µM | 4.26 | 4.08 | > 99 | 48.2 | – |
| O=C(O)c1cccc(NC(=S)NC(=O)c2ccc3ccccc3c2)c1 | – | < 30 | > 99 | inactive | 10.9 | 9.32 | > 99 | > 99 | – |
| CCOC(=O)C1CCCN(C(=O)COc2ccc(C(C)(C)C)cc2)CC1 (centres undefined) | 13.5 µM | 16.5 | 10.4 | 8.24 µM | 8.72 | 7.77 | > 99 | > 99 | – |
| O=c1[nH]c2ccc(Br)cc2c(=O)o1 | 47.5 µM | 36.4 | 58.6 | inactive | 19.3 | 20 | > 99 | 20 | – |
| COC(=O)CCCNC(=O)CCc1nnc(-c2ccc(-c3ccccc3)cc2)o1 | – | > 99 | 21.3 | 2.82 µM | 3.04 | 2.6 | > 99 | > 99 | – |
| CCC(=O)Nc1cccc(C(=O)c2ccc(C)c(C)c2)c1 | – | > 99 | > 99 | – | > 99 | 1.57 | > 99 | 38.7 | – |
| Cc1nc(SCc2cccc(C(=O)O)c2)nc2c1CCCC2 | inactive | 7.09 | 65.6 | 1.05 µM | 1.28 | 0.826 | 3.9 | 17 | 10.5 µM |
| Cc1nc2cc(-c3ccccc3)nn2c(C)c1CCC(=O)NCc1ccco1 | 4.77 µM | 6.92 | 2.62 | 1.81 µM | 1.52 | 2.1 | > 99 | > 99 | – |
| CCOc1cc(/C=N/Nc2cccc(C(=O)O)c2)ccc1OC(=O)c1ccccc1 | – | > 99 | 30.1 | 4.22 µM | 4.44 | 4 | > 99 | > 99 | – |
